{
  "source": "paper PMC10010340",
  "about": "“The Wnt Pathway Inhibitor RXC004 Blocks Tumor Growth and Reverses Immune Evasion in Wnt Ligand–dependent Cancer Models” (Cancer Research Communications, 2022)",
  "key": {"Porcupine": {"target": "T1, Porcupine (Homo sapiens, UniProt Q9H237)", "T1 construct": "HEK293T cells were transfected with GFP-Wnt1-Fc constructs; endogenous in cells; host or cells: HEK293T", "T1 sequence (Q9H237 whole entry)": "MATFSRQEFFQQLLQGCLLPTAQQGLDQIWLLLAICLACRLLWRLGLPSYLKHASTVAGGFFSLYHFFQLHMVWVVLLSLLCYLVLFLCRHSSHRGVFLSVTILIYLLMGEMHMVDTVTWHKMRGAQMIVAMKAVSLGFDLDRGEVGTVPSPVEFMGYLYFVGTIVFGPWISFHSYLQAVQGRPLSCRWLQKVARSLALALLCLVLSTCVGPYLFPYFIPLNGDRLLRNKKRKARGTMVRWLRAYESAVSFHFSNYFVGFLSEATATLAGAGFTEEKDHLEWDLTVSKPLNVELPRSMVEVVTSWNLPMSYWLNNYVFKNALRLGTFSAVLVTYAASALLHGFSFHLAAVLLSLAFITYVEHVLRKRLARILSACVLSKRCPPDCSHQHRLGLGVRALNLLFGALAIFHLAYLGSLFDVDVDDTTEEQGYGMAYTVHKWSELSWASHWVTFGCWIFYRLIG", "assay": "Wnt palmitoylation assay (GFP-Wnt1-Fc in HEK293T cells)", "format": "cell-based", "settings": "100 nmol/L; GFP-Wnt1-Fc in HEK293T cells with alkyne palmitate", "description": "Palmitoylation of Wnt was performed by the Burris group, under a fee-for-service agreement, and was detected as described in Galli and colleagues ([16]). Briefly, HEK293T cells were transfected with GFP-Wnt1-Fc constructs, followed by overnight incubation with alkyne palmitate (Alk-C16) in the presence of DMSO or 100 nmol/L RXC004. Cells were lysed and A/G agarose beads used to pull down GFP-Wnt1-Fc, which was then subjected to click chemistry to covalently attach biotin azide to any attached alkyne palmitate. Following SDS-PAGE and Western blotting, palmitoylation of Wnt was detected using Streptavidin IR 800 dye. GFP detection served as a transfection and/or loading control."}, "[1]": {"system": "Wnt5a secretion from L-Wnt5a cells", "assay": "Wnt secretion assay", "format": "cell-based", "settings": "300 nmol/L, 48 hours", "description": "L-Wnt5a cells (L cells overexpressing Wnt5a; ATCC CRL-2814) were treated with RXC004 (300 nmol/L) or DMSO for 48 hours. Wnt5a secreted into media was detected by Western blotting using anti-Wnt5a antibody (Cell Signaling Technology #2530)."}, "[2]": {"assay": "pKa by fast UV (spectrometric) technique", "format": "physicochemical", "settings": "25°C; for pKa: methanol-water mixture", "description": "pKas were determined using the fast UV (spectrometric) technique. Samples were titrated under methanol-water mixture between pH2.0 and pH12.0 at 30–15 μmol/L at 25°C. The ionic strength was 0.192 mol/L (KCl). Aqueous pKas were determined per Yasuda-Shedlovsky ([17])."}, "MDR1-MDCKII cells": {"system": "MDR1-MDCKII cells", "assay": "Permeability in MDR1-MDCKII cells", "format": "in vitro ADME", "settings": "MDR1-MDCKII cells", "description": "(§1) Permeability of RXC004 was assessed in MDR1-MDCKII (Netherlands Cancer Institute) and Caco-2 cells (Merck Life Sciences). RXC004 (10 μmol/L) was added to either apical or basolateral chamber for 2 hours at 37°C, then an aliquot from the opposite side of the monolayer was removed and quantified by LC/MS-MS. Apparent permeability (Papp) was calculated according to standard practice ([20])."}, "MDR1": {"system": "MDR1", "assay": "Permeability in MDR1-MDCKII cells", "format": "in vitro ADME", "settings": "dog, MDCK-MDR1, 10 μmol/L, 2 hours", "description": "as §1"}, "Hepatocyte stability [3]": {"assay": "Hepatocyte stability", "format": "in vitro ADME, dog (Beagle)", "settings": "Dog, 1 μmol/L", "description": "(§2) Metabolic stability: liver microsomes and hepatocytes from human, mouse (CD1), rat (Sprague Dawley) and dog (Beagle) were obtained from Invitrogen. RXC004 (1 μmol/L) was incubated at 37°C with microsomes (0.5 mg · mL^−1) or hepatocytes (0.5 × 10^6 cells · mL^−1). Aliquots were removed at 0–45 minutes and RXC004 concentrations determined by LC/MS-MS analysis. Half-life (T1/2) and intrinsic clearance (CLint) were calculated as described in ref. [18]."}, "Hepatocyte stability [4]": {"assay": "Hepatocyte stability", "format": "in vitro ADME", "settings": "Human, 1 μmol/L", "description": "as §2"}, "Microsomal stability": {"assay": "Microsomal stability", "format": "in vitro ADME, dog (Beagle)", "settings": "Dog, 1 μmol/L", "description": "as §2"}, "In vivo pharmacokinetics": {"assay": "In vivo pharmacokinetics", "parameters": "species or system mouse (male CD1)", "settings": "mouse", "description": "In vivo pharmacokinetics: RXC004 was dosed to male Sprague Dawley rats, male CD1 mice or dog (beagle) by intravenous and oral routes. Bioanalysis of blood and plasma samples was performed by LC/MS-MS using a Waters TQS or TQMS mass spectrometer. Pharmacokinetic information was derived using WinNonlin software (Certara)."}, "HCT116 cells": {"system": "HCT116 cells", "assay": "Wnt-responsive gene expression (qPCR)", "format": "cell-based, human", "source_text": "(§3) The expression of nine potential Wnt-responsive genes was screened across cell lines by treatment with RXC004 (10 nmol/L) or DMSO (0.1%) for 3 days. RNA was extracted (Aurum RNA isolation kit, Bio-Rad #372-6820) and gene expression assessed by Taqman qPCR relative to appropriate housekeeping genes on the Bio-Rad CFX real-time system.\n(§4) For concentration–response effects on gene expression, Single-Shot Cell Lysis kit (Bio-Rad #172-5080) was used for RNA extraction, data were normalized to DMSO-treated controls, and IC50 values determined. For cell-cycle analysis, the cancer cell line panel was treated with RXC004 (100 nmol/L) or DMSO (0.1%) for 3 days. Cell-cycle profiles were determined by staining with propidium iodide (Thermo Fisher Scientific #P3566) and phospho-Ser10-Histone-H3 (AlexaFluor-647, BioLegend #650806), and quantified using an Agilent Novocyte-3000 flow cytometer. For in vitro growth curve analysis, HPAF-II and SNU-1411 cells were seeded in 96-well plates at 2,000 cells/well and imaged on the IncuCyte (Sartorius) at 10× magnification with 4 fields of view per well. Total cell object count over time was calculated using the Adherent Cell-by-Cell analysis module."}, "WiDR cells": {"system": "WiDR cells", "assay": "Wnt-responsive gene expression (qPCR)", "format": "cell-based, human", "source_text": "as §3, §4"}, "[5]": {"system": "cell lines with RNF43 LoF mutations and RSPO3 fusions", "assay": "Wnt-responsive gene expression (qPCR)", "format": "cell-based, human", "settings": "10 nmol/L, 3 days", "source_text": "as §3, §4"}, "SNU-1411 xenograft": {"system": "SNU-1411 xenograft", "assay": "In vivo 18FDG-PET", "parameters": "species or system mouse (NOD-SCID)", "settings": "SNU-1411, 5 mg/kg once daily", "description": "Experiment was performed at Medicines Discovery Catapult. SNU-1411 (1 × 10^7 cells; NOD-SCID mice) or HPAF-II (1 × 10^7 cells; NOD-SCID mice) were implanted subcutaneously and treatment with RXC004 (5 mg/kg once daily) or vehicle commenced when tumors reached approximately 200 mm^3. Mice were imaged prior to dosing, day 3 and day 7 after dosing. A 10 MBq injection of ^18FDG (PETNET), with a 45-minute washout was followed by a 20-minute PET scan using a Siemens Inveon PET scanner. Tissues removed on day 7 for biodistribution analysis were assessed using a PerkinElmer Wallac Wizard Gamma counter."}, "[6]": {"settings": "male, CD1, in vivo, po, 5 mg/kg p.o."}},
  "note": "Like-named read-outs stand apart in the source and are kept apart here.",
  "data": [
    {"smiles": "Cc1c(-c2ccnc(C(F)(F)F)c2)ncn1CC(=O)Nc1ccc(-c2cnccn2)cn1", "note": "[RXC004, 2-[5-methyl-4-[2-(trifluoromethyl)-4-pyridyl]imidazol-1-yl]-N-(5-pyrazin-2-yl-2-pyridyl)acetamide]", "values": [
      {"measurement": "palmitoylation of Wnt", "setting": "Porcupine", "value": "inhibited palmitoylation of Wnt"},
      {"measurement": "Wnt5a secretion into the media", "setting": "[1]", "value": "inhibited Wnt5a secretion"},
      {"measurement": "pKa (most basic)", "setting": "[2]", "value": 3.84},
      {"measurement": "pKa", "setting": "[2]; read-out: pKa (most acidic)", "value": 11.2},
      {"measurement": "pKa", "setting": "[2]; read-out: pKa (most basic)", "value": 3.8},
      {"measurement": "efflux", "setting": "MDR1-MDCKII cells", "value": "some evidence of efflux in MDR1-MDCKII cells"},
      {"measurement": "Papp A→B at 2 h, 10 μmol/L", "setting": "MDR1; apical to basolateral, read-out: MDCK PappA-B", "value": 15, "unit": "×10⁻⁶ cm/s"},
      {"measurement": "Papp B→A at 2 h, 10 μmol/L", "setting": "MDR1; basolateral to apical, read-out: MDCK PappB-A", "value": 51.9, "unit": "×10⁻⁶ cm/s"},
      {"measurement": "Hepatocyte stability: CLint", "setting": "Hepatocyte stability [3]", "value": "12.5 μL minute^−^1 · 10^6 cells^−^1"},
      {"measurement": "Hepatocyte stability: CLint", "setting": "Hepatocyte stability [4]", "value": "<3.0 μL minute^−^1 · 10^6 cells^−^1"},
      {"measurement": "Microsomal stability: CLint", "setting": "Microsomal stability", "value": 31.6, "unit": "μL minute^−^1 · mg^−^1"},
      {"measurement": "clearance", "setting": "In vivo pharmacokinetics; male, CD1, in vivo, intravenous, 2 mg/kg, dose i.v./p.o. 2/5 mg/kg", "value": 2.9, "unit": "mL/min/kg"},
      {"measurement": "Vd", "setting": "In vivo pharmacokinetics; male, CD1, in vivo, intravenous, 2 mg/kg, dose i.v./p.o. 2/5 mg/kg, read-out: Vss", "value": 0.4, "unit": "L/kg"},
      {"measurement": "AUC(0-inf)", "setting": "In vivo pharmacokinetics; [6]", "value": 33.9, "unit": "µM·h"},
      {"measurement": "Cmax", "setting": "In vivo pharmacokinetics; [6]", "value": 7.6, "unit": "µM"},
      {"measurement": "concentration at 24 h", "setting": "In vivo pharmacokinetics; male, CD1, in vivo, po, 5 mg/kg p.o., read-out: C24h (p.o.)", "value": 0.002, "unit": "µM"},
      {"measurement": "half-life", "setting": "In vivo pharmacokinetics; male, CD1, in vivo, dose i.v./p.o. 2/5 mg/kg, read-out: T½ (converted)", "value": 1.8, "unit": "h"},
      {"measurement": "F (p.o.)", "setting": "In vivo pharmacokinetics; dose i.v./p.o. 2/5 mg/kg", "value": 48, "unit": "%"},
      {"measurement": "Wnt pathway target expression", "setting": "HCT116 cells; HCT116, 10 nmol/L, 3 days", "value": "Minimal effects"},
      {"measurement": "IC50", "setting": "HCT116 cells; Homo sapiens, HCT-116, HCT116, read-out: IC50, c-Myc mRNA expression", "value": "> 10", "unit": "µM"},
      {"measurement": "IC50", "setting": "WiDR cells; Homo sapiens, WiDr, read-out: IC50, c-Myc mRNA expression", "value": "> 10", "unit": "µM"},
      {"measurement": "Wnt pathway target expression", "setting": "WiDR cells; WiDR, 10 nmol/L, 3 days", "value": "Minimal effects"},
      {"measurement": "mRNA expression of Wnt pathway targets Axin2, RNF43, c-Myc, CD44, MMP7", "setting": "[5]", "value": "downregulated mRNA expression of Wnt pathway targets"},
      {"measurement": "mucin mRNA", "setting": "[5]", "value": "marked increase in mucin mRNA"},
      {"measurement": "18FDG tumor:blood ratios", "setting": "SNU-1411 xenograft; 7-day dosing", "value": "significant decrease in tumor:blood ratios"},
      {"measurement": "decrease in maximum standardized uptake value (18FDG-PET)", "setting": "SNU-1411 xenograft; day 7, versus vehicle", "value": 31, "unit": "%"}
    ]}
  ]
}
